Measured values reported in patent publication US11345710B2, “Imidazo[1,2-b]pyrimido[4,5-d]pyridazin-5(6H)-ones and the use thereof” (IMPACT THERAPEUTICS (SHANGHAI), INC, priority 2017, dated 2022).
Read-outs that look alike come from different tables or passages of the source.

Assays:
Wee1 kinase (h) = Wee1 kinase (h) (Homo sapiens, UniProt P30291); assay: Wee1 kinase (h) detection method, [γ-33P]-ATP filter assay; format: biochemical; conditions: 10 μM ATP, 40 minutes at room temperature
Protocol: Wee1 kinase (h) was incubated with 20 mM Tris/HCl pH 8.5, 0.2 mM EDTA, 500 μM […], 10 mM MgAcetate and 10 μM [γ-^33P]-ATP. Then the stock solution of all compounds under test with 50× concentration in 100% DMSO was added to make the final concentration of 1/0.1/0.01 μM, and then mixed the mixture well. The reaction was initiated by the addition of the Mg/ATP mix. After incubation for 40 minutes at room temperature, the reaction was stopped by the addition of phosphoric acid to a concentration of 0.5%. 10 μL of the reaction liquor was then spotted onto a P30 filtermat and washed four times in 0.425% phosphoric acid and once in methanol prior to drying and scintillation counting. Each compound sample was duplicated in duplicate. The negative control was lack of all the components of Wee1 enzyme, and the positive was addition of 30% phosphoric acid to terminate the reaction. The Wee1 inhibitor AZD1775 was detected at 10/0.01 μM at the same experiment condition.

NCI-H1299 cells = assay: MTT based cell viability assay on NCI-H1299 cells; conditions: Homo sapiens, read-out: IC50, growth inhibition on NCI-H1299 cells
Protocol: Determination of the Cell Growth Inhibiting Activity of 6-(2,6-dichlorophenyl)-2-((4-(4-methylpiperazin-1-yl)phenyl)amino)imidazo[1,2-b]pyrimido[4,5-d]pyridazin-5(6H)-one and Analogs on NCI-H1299 Cells Using a MTT Based Cell Viability Assay
The thawed NCI-H1299 cells were cultured and passaged to the third generation, and the growth state was good and the confluence was about 90%, which began to be used in the experiment. The NCI-H1299 cells were digested with trypsin, centrifuged at 800 rpm for 5 min, the supernatant was discarded, resuspended with fresh culture medium, and counted. 1000 Cells are seeded to each well of a 96-well plate. The cells are incubated at 37° C. in a 5% CO2 cell culture incubator overnight. The tested sample (including the tested compound and the reference compound AZD1775) was diluted continuously to 8 concentrations (the last concentration was negative control of DMSO) with a 1:3 and 1:10 dilution in DMSO respectively: 10 μM, 3.3 μM, 1 μM, 0.33 μM, 0.1 μM, 0.033 μM, 0.01 μM, 0 μM (the final concentration of DMSO was 1%). 5 μL of each concentration was added to 120 μL of culture medium (25 times diluted), and the mixture was shaken well. The overnight cells were taken and the culture medium was removed, 195 μL of fresh culture medium was added to each well, and 5 μL of diluted culture medium containing the corresponding concentration of the tested sample was added respectively, and the culture plate was then placed in the 5% CO2 cell culture incubator at 37° C. for 3 d. After removing the original solution and adding 100 μL of fresh serum-free DMEM culture medium containing MTT (0.5 mg/mL) per well, the culture was continued. The original solution was removed after 4 hrs and 100 μl DMSO was added to each well. The 96-well cell culture plates were shaken away from light for 10 min and readed in a multifunctional reader at 552/630/690 nm to give absorption values (OD values). The data were analyzed using a graphic software (Graph Pad Prism 5.0) and the inhibitory activity of the compound on cell proliferation was plotted in terms of cell survival and compound concentration. The IC50 values were fitted by the S-shaped dose-response curve equation as follows: Y=100/(1+10^(Log C−Log IC50)), where C was the concentration of testing compounds.

LoVo cells = assay: MTT based cell viability assay on LoVo cells; conditions: Homo sapiens, 72 h, read-out: IC50, growth inhibition on LoVo cells
Protocol: Determination of the Cell Growth Inhibiting Activity of 6-(2,6-dichlorophenyl)-2-((4-(4-methylpiperazin-1-yl)phenyl)amino)imidazo[1,2-b]pyrimido[4,5-d]pyridazin-5(6H)-one and Analogs Thereof on LoVo Cells Using a MTT Based Cell Viability Assay
The thawed LoVo cells were cultured and passaged to the third generation, and the growth state was good and the confluence was about 90%, which began to be used in the experiment. The LoVo cells were digested with trypsin, centrifuged at 800 rpm for 5 min, the supernatant was discarded, resuspended with fresh culture medium, and counted. 6000 Cells are seeded to each well of a 96-well cell culture plate. The cells were incubated at 37° C. in a 5% CO2 cell culture incubator overnight. The tested sample (including the tested compound and the reference compound AZD1775) was diluted continuously to 8 concentrations (the last concentration was negative control of DMSO) with a 1:3 and 1:10 dilution in DMSO respectively: 10 μM, 3.3 μM, 1 μM, 0.33 μM, 0.1 μM, 0.033 μM, 0.01 μM, 0 μM (the final concentration of DMSO was 1%). 5 μL of each concentration was added to 120 μL of culture medium (25 times diluted), and the mixture was shaken well. The overnight cells were taken and the culture medium was removed, 195 μL of fresh culture medium was added to each well, and 5 μL of diluted culture medium containing the corresponding concentration of the tested sample was added respectively, and the culture plate was then placed in the 5% CO2 cell culture incubator at 37° C. for 3 d. After removing the original solution and adding 100 μL of fresh serum-free DMEM culture medium containing MTT (0.5 mg/mL) per well, the culture was continued. The original solution was removed after 4 hrs and 100 μl DMSO was added to each well. The 96-well cell culture plates were shaken away from light for 10 min and readed in a multifunctional reader at 552/630/690 nm to give absorption values (OD values). The data were analyzed using a graphic software (Graph Pad Prism 5.0) and the inhibitory activity of the compound on cell proliferation was plotted in terms of cell survival and compound concentration. The IC50 values were fitted by the S-shaped dose-response curve equation as follows: Y=100/(1+10^(Log C−Log IC50)), where C was the concentration of testing compounds.

[1] = 72 h, NCI-H1299 cells, 3 d, MTT

Chain of Wee1 kinase (h) (P30291 whole entry): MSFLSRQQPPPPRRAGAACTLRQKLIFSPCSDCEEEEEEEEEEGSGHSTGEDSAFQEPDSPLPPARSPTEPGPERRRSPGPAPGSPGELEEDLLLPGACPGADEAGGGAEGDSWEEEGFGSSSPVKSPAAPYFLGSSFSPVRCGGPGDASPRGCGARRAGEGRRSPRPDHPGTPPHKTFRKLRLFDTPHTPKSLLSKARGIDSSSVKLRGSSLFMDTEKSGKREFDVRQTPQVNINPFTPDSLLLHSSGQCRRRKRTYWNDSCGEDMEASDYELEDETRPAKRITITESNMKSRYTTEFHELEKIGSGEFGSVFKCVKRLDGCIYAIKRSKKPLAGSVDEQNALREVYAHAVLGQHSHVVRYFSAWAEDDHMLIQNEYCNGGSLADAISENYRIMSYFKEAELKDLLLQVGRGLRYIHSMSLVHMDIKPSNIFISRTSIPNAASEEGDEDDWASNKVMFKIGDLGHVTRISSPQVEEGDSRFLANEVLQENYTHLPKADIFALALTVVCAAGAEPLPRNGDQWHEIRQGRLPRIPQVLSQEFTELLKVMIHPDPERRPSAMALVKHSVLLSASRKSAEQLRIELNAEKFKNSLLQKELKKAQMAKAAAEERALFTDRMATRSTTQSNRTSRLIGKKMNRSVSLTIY

Row | Compound | Inh. (%) of Wee1 kinase (Wee1 kinase (h); C 1 μm) [%] | IC50 (NCI-H1299 cells; [1]) [nM] | IC50 (LoVo cells; LoVo cells, 3 d, MTT) [nM] | Inh. (%) of Wee1 kinase (Wee1 kinase (h); C 0.01 μm) [%] | Inh. (%) of Wee1 kinase (Wee1 kinase (h); C 0.1 μm) [%] | IC50 (NCI-H1299 cells; NCI-H1299, 72 h) [nM] | IC50 (LoVo cells; LoVo) [nM]
1 | Cc1cc(Nc2ncc3c(=O)n(-c4c(C)cccc4F)n4ccnc4c3n2)cc(Cl)c1N1CCN(C)CC1 [Example 52, 6-(2-fluoro-6-methylphenyl)-2-((3-chloro-5-methyl-4-(4-methylpiperazin-1-yl)phenyl)amino)imidazo[1,2-b]pyrimido[4,5-d]pyridazin-5(6H)-one] | 78 | 809 | 756 |  |  |  | 
2 | Cc1cn2c(n1)c1nc(Nc3ccc(N4CCN(C)CC4)c(Cl)c3)ncc1c(=O)n2-c1c(Cl)cccc1Cl [Example 57, 6-(2,6-dichlorophenyl)-2-((3-chloro-4-(4-methylpiperazin-1-yl)phenyl)amino)-9-methylimidazo[1,2-b]pyrimido[4,5-d]pyridazin-5(6H)-one] | 93 | 173 | 269 | 12 |  |  | 
3 | CN1CCN(c2ccc(Nc3ncc4c(=O)n(-c5c(F)cccc5F)n5ccnc5c4n3)cc2Cl)CC1 [Example 18, 6-(2,6-difluorophenyl)-2-((3-chloro-4-(4-methylpiperazin-1-yl)phenyl)amino)imidazo[1,2-b]pyrimido[4,5-d]pyridazin-5(6H)-one] | 87 | 1080 | 579 |  |  |  | 
4 | Cc1cccc(Cl)c1-n1c(=O)c2cnc(Nc3ccc(N4CCN(C)CC4)c(Cl)c3)nc2c2nccn21 [Example 53, 6-(2-chloro-6-methylphenyl)-2-((3-chloro-4-(4-methylpiperazin-1-yl)phenyl)amino)imidazo[1,2-b]pyrimido[4,5-d]pyridazin-5(6H)-one] | 94 | 809 | 642 | 12 | 69 |  | 
5 | Cc1cc(Nc2ncc3c(=O)n(-c4c(Cl)cccc4Cl)n4ccnc4c3n2)cc(Cl)c1N1CCN(C)CC1 [Example 29, 6-(2,6-dichlorophenyl)-2-((3-chloro-5-methyl-4-(4-methylpiperazin-1-yl)phenyl)amino)imidazo[1,2-b]pyrimido[4,5-d]pyridazin-5(6H)-one] | 93 |  |  | 21 | 65 | 400 | 272
6 | Cc1cn2c(n1)c1nc(Nc3cc(C)c(N4CCC(N(C)C)CC4)c(F)c3)ncc1c(=O)n2-c1c(Cl)cccc1Cl [Example 59, 6-(2,6-dichlorophenyl)-2-((3-fluoro-5-methyl-4-(4-(dimethylamino)piperidin-1-yl)phenyl)amino)-9-methylimidazo[1,2-b]pyrimido[4,5-d]pyridazin-5(6H)-one] |  | 220 | 285 | 7 |  |  | 
7 | Cc1cc(Nc2ncc3c(=O)n(-c4c(Cl)cccc4Cl)n4ccnc4c3n2)ccc1N1CCN(C)CC1 [Example 3, 6-(2,6-dichlorophenyl)-2-((3-methyl-4-(4-methylpiperazin-1-yl)phenyl)amino)imidazo[1,2-b]pyrimido[4,5-d]pyridazin-5(6H)-one] | 96 |  |  | 26 | 76 | 178 | 236
8 | Cc1cc(Nc2ncc3c(=O)n(-c4c(C)cccc4Cl)n4ccnc4c3n2)cc(F)c1N1CCN(C)CC1 [Example 54, 6-(2-chloro-6-methylphenyl)-2-((3-fluoro-5-methyl-4-(4-methylpiperazin-1-yl)phenyl)amino)imidazo[1,2-b]pyrimido[4,5-d]pyridazin-5(6H)-one] | 91 | 419 | 637 |  |  |  | 
9 | Cc1cnc2c3nc(Nc4ccc(N5CCN(C)CC5)c(Cl)c4)ncc3c(=O)n(-c3c(Cl)cccc3Cl)n12 [Example 56, 6-(2,6-dichlorophenyl)-2-((3-chloro-4-(4-methylpiperazin-1-yl)phenyl)amino)-8-methylimidazo[1,2-b]pyrimido[4,5-d]pyridazin-5(6H)-one] | 95 | 540 | 434 |  |  |  | 
10 | CN1CCN(c2ccc(Nc3ncc4c(=O)n(-c5c(F)cccc5Cl)n5ccnc5c4n3)cc2)CC1 [Example 7, 6-(2-chloro-6-fluorophenyl)-2-((4-(4-methylpiperazin-1-yl)phenyl)amino)imidazo[1,2-b]pyrimido[4,5-d]pyridazin-5(6H)-one] | 92 | 781 | 831 |  |  |  | 
11 | Cc1cc(Nc2ncc3c(=O)n(-c4c(F)cccc4F)n4ccnc4c3n2)cc(C)c1N1CCN(C)CC1 [Example 13, 6-(2,6-difluorophenyl)-2-((3,5-dimethyl-4-(4-methylpiperazin-1-yl)phenyl)amino)imidazo[1,2-b]pyrimido[4,5-d]pyridazin-5(6H)-one] | 85 | 738 | 488 |  |  |  | 
12 | Cc1cc(Nc2ncc3c(=O)n(-c4c(Cl)cccc4Cl)n4ccnc4c3n2)cc(C)c1N1CCN(C)CC1 [Example 4, 6-(2,6-dichlorophenyl)-2-((3,5-dimethyl-4-(4-methylpiperazin-1-yl)phenyl)amino)imidazo[1,2-b]pyrimido[4,5-d]pyridazin-5(6H)-one] | 96 |  |  | 16 | 73 | 383 | 339
13 | Cc1cc(Nc2ncc3c(=O)n(-c4c(F)cccc4Cl)n4ccnc4c3n2)cc(Cl)c1N1CCN(C)CC1 [Example 23, 6-(2-chloro-6-fluorophenyl)-2-((3-chloro-5-methyl-4-(4-methylpiperazin-1-yl)phenyl)amino)imidazo[1,2-b]pyrimido[4,5-d]pyridazin-5(6H)-one] | 91 | 528 | 195 |  |  |  | 
14 | Cc1cc(Nc2ncc3c(=O)n(-c4c(F)cccc4Cl)n4ccnc4c3n2)ccc1N1CCN(C)CC1 [Example 9, 6-(2-chloro-6-fluorophenyl)-2-((3-methyl-4-(4-methylpiperazin-1-yl)phenyl)amino)imidazo[1,2-b]pyrimido[4,5-d]pyridazin-5(6H)-one] | 97 | 284 | 213 | 14 |  |  | 
